Assay results as given in PMC6478823, “A suite of phenotypic assays to ensure pipeline diversity when prioritizing drug-like Cryptosporidium growth inhibitors” (Nature Communications, 2019).
Values joined by “and” are separate entries in the source; they are usually repeats but may differ in a detail not shown here. Equal entries are not always repeated.

How the values were obtained:
[1] = tested on: C. parvum DMC1 expression; experiment: Sexual differentiation assay (DMC1 expression); assay type: cell-based, Cryptosporidium parvum; conditions: for Asexual to sexual differentiation: Mean % DMC1 inhibition (normalized to host nuclei), Average: average of replicates; for Asexual to sexual differentiation: Mean % DMC1 inhibition (normalized to host nuclei), Replicate 1a: single replicate 1; for Asexual to sexual differentiation: Mean % DMC1 inhibition (normalized to host nuclei), Replicate 2a: single replicate 2; for 48 - 72 h DMC1 (asexual to sexual conversion): Mean % DMC1 inhibition (normalized to host nuclei): replicates 1-2; for Asexual to sexual differentiation: Mean % DMC1 inhibition (normalized to host nuclei), Replicate 3a: single replicate 3
Source text: We utilized DMC1 as a marker of C. parvum sexual development, and used the anti-DMC1 monoclonal antibody to develop a moderate-throughput high-content microscopy assay for characterizing anticryptosporidial compounds (Fig. 6a). […] Therefore, in order to enable numerical comparison of the ability of compounds to block sexual development with moderate throughput, we adopted a strategy of reporting the percent inhibition of DMC1 expression by the previously determined EC90 of each compound in the standard asexual development assay (Fig. 6c and Supplementary Table 2).
Fig. 6 Assay to measure asexual-to-sexual-stage conversion. a Schematic of the experimental approach. […] For b and c the mean and SD combined from at least two biological replicates with four technical replicates per experiment are shown. […] At given time points post-infection, infected cells were washed 3 times with PBS containing 111 mM of D-galactose, fixed for 15 min at room temperature with 4% paraformaldehyde in PBS, and permeabilized with 0.25% triton X-100 in PBS for 10 min at 37 °C. Cells were then washed 3 times with PBS and blocked at least overnight at 4 °C with 1% BSA in PBS (blocking buffer). Cells were stained with monoclonal antibody (1H10G7), either neat culture supernatant or 12.8 µg/mL of purified IgG in blocking buffer for 1 h at 37 °C, followed by 2 washes with PBS. Cells were then co-stained with a 1:500 dilution (4 µg/mL) of Alexa Fluor 568 goat anti-mouse IgG (Invitrogen, catalog# A-11004) and 1.33 µg/mL fluorescein-labeled Vicia villosa lectin (Vector Laboratories, catalog# FL-1231) diluted in blocking buffer for 1 h at 37 °C. Stains were then removed and 0.09 mM Hoechst 33258 (AnaSpec, catalog# AS-83219) also diluted in blocking buffer was added for another 15 min at 37 °C, followed by 2 PBS washes and imaging on a Nikon Eclipse Ti2000 epifluorescence microscope run with NIS-Elements Advanced Research software (Nikon, USA) and equipped with an EXi blue fluorescent microscopy camera (QImaging, Canada). For enumerating parasites, tiled 2 × 2 images with 15% overlapping edges were taken using a 40 × dry objective (0.7 NA), and for finer details, Z stack images were acquired using a 60 × oil objective (1.4 NA). Lectin positive cells in focus were first counted, followed by DMC1.
For compound dose-response studies, the same assay was performed in 384-well plates and imaged using a 20 × dry objective (NA = 0.45). Tiled 4 × 4 to 6 × 6 images were taken. Images were analyzed using ImageJ software and the custom macro provided in Supplementary Method 2.

C. parvum [2] = experiment: DNA replication assay (EdU incorporation); assay type: cell-based, Cryptosporidium parvum; conditions: compound at EC90; for DNA Synthesis Assay: Mean % Inhibition of EdU-labeling (normalized to parasite numbers), Average: average of replicates; for DNA Synthesis Assay: Mean % Inhibition of EdU-labeling (normalized to parasite numbers), Replicate 1: single replicate 1; for DNA Synthesis Assay: Mean % Inhibition of EdU-labeling (normalized to parasite numbers), Replicate 2: single replicate 2; for DNA Synthesis Assay: Mean % Inhibition of EdU-labeling (normalized to parasite numbers), Replicate 3: single replicate 3; for DNA synthesis: yes/no grouping by phenotypic assay result
Source text: Following cell invasion, Cryptosporidium trophozoites grow and multiply to give rise to multinucleated type I meronts (Fig. 3a). The thymidine analog 5-ethynyl-2′-deoxyuridine (EdU) is efficiently incorporated into newly synthesized DNA, and can be detected using click chemistry. We used EdU to measure parasite intracellular DNA replication, as a surrogate for the more complex phenotype of intracellular growth and division. The approach for differentially labeling newly synthesized parasite DNA compared to host cell DNA was to take advantage of the fact that C. parvum replicates more quickly than the nearly confluent host cells. Thus, by adding EdU shortly before egress, it was possible to preferentially label replicating parasites (Fig. 3b, c). DNA staining with Hoechst labeled all of the host and parasite DNA, making it challenging to visualize and quantify parasite DNA. A simple DNA stain would also not distinguish pre-existing DNA from newly synthesized DNA (Fig. 3c). In contrast, EdU labeling only occurred with incorporation into newly synthesized DNA. Incorporated EdU was then easily stained for immunofluorescence and labeled parasites were quantified using high-content microscopy and an NIH ImageJ macro (Fig. 3c, DMSO condition). The […] hydroxyurea (10 mM), a known inhibitor of DNA replication, was used as a positive control for assay validation. […] Compounds with activity in this assay cannot be concluded to specifically target DNA replication, which is a complex phenotype.
Confluent HCT-8 cell monolayers in glass bottom plates were infected with C. parvum, and compounds were added at EC90 following invasion. At 9 h post-infection, 10 µM EdU was added, followed by incubation for another 2 h, and then washing, fixing, and staining for microscopy. […] 40 × dry objective (NA = 0.7); scale = 5 µm. Arrows indicate selected parasites with EdU-labeled DNA. d Quantification of EdU incorporation. […] Data are mean and SD of 2–5 biological replicates.
After incubation of cells with EdU for 2 h, cells were washed 3 times with PBS-D-gal and then fixed with PBS containing 4% PFA. Cells were then permeabilized and stained for EdU using the Click-iT® assay kit (Thermo Fisher Scientific, catalog# C10340) as per the manufacturer’s instructions. Cells were then imaged by focusing on parasites (note that the host cell nuclei are in a different focal plane) using a 40 × dry objective (0.7 NA) and EdU, and lectin numbers quantified using ImageJ software and the custom macro in Supplementary Method 1.

C. parvum [3] = assay type: cell-based, Cryptosporidium parvum; conditions: compound at EC90; for Invasion Assay: Mean % Inhibition (parasites), Average: average of replicates; for Invasion Assay: Mean % Inhibition (parasites), Replicate 1a: single biological replicate 1; for Invasion Assay: Mean % Inhibition (parasites), Replicate 2a: single biological replicate 2; for Sporozoite invasion: yes/no grouping by phenotypic assay result
Protocol: The first step in infection is host cell invasion, which involves a complex process encompassing oocyst excystation, parasite motility, adhesion, and parasitophorous vacuole formation (Fig. 2a). Our strategy to assay for compounds affecting invasion was simply to expose C. parvum to compounds immediately after triggering excystation and throughout the invasion process, and then enumerate the parasite vacuoles after 3 h, prior to allowing the parasites to replicate (summarized in Fig. 2b).
Fig. 2 Invasion Assay. a Overview of life cycle stage investigated during the invasion assay. Representative TEM images of a C. parvum oocyst and HCT-8 cell shortly after infection (Scale bar = 500 nm). b Schematic of experimental design. […] Each point represents the mean and SD of at least two biological replicates with four technical replicates per experiment.
C. parvum invasion inhibition was measured by modifying the 48 h growth inhibition assay described above. […] In parallel, Iowa strain oocysts were excysted. […] Assay plates were incubated at 37 °C and 5% CO2 for 3 h.

C. parvum [4] = experiment: Egress, motility, reinvasion assay (PV ratio); conditions: compound at EC90; for Egress and Reinvasion Assay: Mean PV ratios (19.5h:6h), Average: average of replicates; for Egress and Reinvasion Assay: Mean PV ratios (19.5h:6h), Replicate 1a: single replicate 1; for Egress and Reinvasion Assay: Mean PV ratios (19.5h:6h), Replicate 2a: single replicate 2
Protocol: For quantification of parasitophorous vacuoles over time, HCT-8 cells were grown to greater than 90% confluence in 384-well plates and infected with 11,000 oocysts after triggering excystation.

[5] = compound at asexual EC90, 48-72 h

| Compound | Asexual to sexual differentiation: Mean % DMC1 inhibition (normalized to host nuclei), Average [1, 5] | Asexual to sexual differentiation: Mean % DMC1 inhibition (normalized to host nuclei), Replicate 1a [1, 5] | Asexual to sexual differentiation: Mean % DMC1 inhibition (normalized to host nuclei), Replicate 2a [1, 5] | DNA Synthesis Assay: Mean % Inhibition of EdU-labeling (normalized to parasite numbers), Average (C. parvum [2]) | DNA Synthesis Assay: Mean % Inhibition of EdU-labeling (normalized to parasite numbers), Replicate 1 (C. parvum [2]) | DNA Synthesis Assay: Mean % Inhibition of EdU-labeling (normalized to parasite numbers), Replicate 2 (C. parvum [2]) | DNA Synthesis Assay: Mean % Inhibition of EdU-labeling (normalized to parasite numbers), Replicate 3 (C. parvum [2]) | Invasion Assay: Mean % Inhibition (parasites), Average (C. parvum [3]) | Invasion Assay: Mean % Inhibition (parasites), Replicate 1a (C. parvum [3]) | Invasion Assay: Mean % Inhibition (parasites), Replicate 2a (C. parvum [3]) | Egress and Reinvasion Assay: Mean PV ratios (19.5h:6h), Average (C. parvum [4]) | Egress and Reinvasion Assay: Mean PV ratios (19.5h:6h), Replicate 1a (C. parvum [4]) | Egress and Reinvasion Assay: Mean PV ratios (19.5h:6h), Replicate 2a (C. parvum [4]) | Asexual to sexual differentiation: Mean % DMC1 inhibition (normalized to host nuclei), Replicate 3a [1, 5] | DNA synthesis (C. parvum [2]) | Sporozoite invasion (C. parvum [3]) | further results |
| --- | --- | --- | --- | --- | --- | --- | --- | --- | --- | --- | --- | --- | --- | --- | --- | --- | --- |
| CC(C)c1c(C(=O)Nc2ccccc2)c(-c2ccccc2)c(-c2ccc(F)cc2)n1CC[C@@H](O)C[C@@H](O)CC(=O)O [Atorvastatin] | 36.34% | 55.77% | 16.91% | -4.60% | -2.45% | -19.78% | 8.45% | -38.43% | -51% | -26% | 1.88 | 1.94 | 1.82 |  |  |  |  |
| c1ccc(CNc2nc(Nc3ccccc3)nc3ccccc23)cc1 [B-1] | 18.08% | 32.96% | -3.57% | -31.43% | -48.95% | -39.64% | -5.71% | 56.43% | 55% | 63% | 1.58 | 1.28 | 1.59 | 17.22% | no | yes | 48 - 72 h DMC1 (asexual to sexual conversion): Mean % DMC1 inhibition (normalized to host nuclei) ([1]; B-1 at log[MMV006169] (µM) 0.22): -6.54% and 4.81%; 48 - 72 h DMC1 (asexual to sexual conversion): Mean % DMC1 inhibition (normalized to host nuclei) ([1]; B-1 at log[MMV006169] (µM) 0.52): -9.41% and 15.73%; 48 - 72 h DMC1 (asexual to sexual conversion): Mean % DMC1 inhibition (normalized to host nuclei) ([1]; B-1 at log[MMV006169] (µM) 0.70): -14.15% and 22.48%; 48 - 72 h DMC1 (asexual to sexual conversion): Mean % DMC1 inhibition (normalized to host nuclei) ([1]; B-1 at log[MMV006169] (µM) 1.00): 25.47% and 51.27%; 48 - 72 h DMC1 (asexual to sexual conversion): Mean % DMC1 inhibition (normalized to host nuclei) ([1]; B-1 at log[MMV006169] (µM) -0.25): 2.94% and -1.61%; 48 - 72 h DMC1 (asexual to sexual conversion): Mean % DMC1 inhibition (normalized to host nuclei) ([1]; B-1 at log[MMV006169] (µM) -0.73): 13.51% and -3.18%; 48 - 72 h DMC1 (asexual to sexual conversion): Mean % DMC1 inhibition (normalized to host nuclei) ([1]; B-1 at log[MMV006169] (µM) -1.21): 14.75% and -24.05%; 48 - 72 h DMC1 (asexual to sexual conversion): Mean % DMC1 inhibition (normalized to host nuclei) ([1]; B-1 at log[MMV006169] (µM) -1.69): 19.37% and -12.74%; 48 - 72 h DMC1 (asexual to sexual conversion): Mean % DMC1 inhibition (normalized to host nuclei) ([1]; B-1 at log[MMV006169] (µM) -2.16): 9.35% and -23.05%; activity in the DMC1 (sexual development) assay relative to asexual assay ([1]; compound added at 48 h, read at 72 h, result in words): less potent when used during the sexual phases of development; Asexual to sexual differentiation: Mean % DMC1 inhibition (normalized to host nuclei), Replicate 4a ([1]; compound at asexual EC90, 48-72 h, single replicate 4): 25.70%; EC50 ([1]; inhibition of DMC1 expression from 48 to 72 h, range in brackets, read-out: 48 − 72 h DMC1 (asexual to sexual conversion): EC50): 11 µM; Invasion Assay: Mean % Inhibition (parasites), Replicate 3a (C. parvum [3]; single biological replicate 3): 42%; Invasion Assay: Mean % Inhibition (parasites), Replicate 4a (C. parvum [3]; single biological replicate 4): 66%; Egress and Reinvasion Assay: Mean PV ratios (19.5h:6h), Replicate 3a (C. parvum [4]; single replicate 3): 1.80; Egress and Reinvasion Assay: Mean PV ratios (19.5h:6h), Replicate 4a (C. parvum [4]; single replicate 4): 1.65 |
| c1ccc(CNc2nc(NC3CCCC3)nc3ccccc23)cc1 [B-5] | 7.84% | 11.99% | -2.17% | -9.25% | -17.04% | 19.85% | -30.57% | 82.99% | 81% | 85% | 1.49 | 1.74 | 1.24 | 13.72% | no | yes |  |
| COc1ccc(Nc2nc(NCc3ccccc3Cl)c3ccccc3n2)cc1Cl [B-13] | 11.26% | 30.33% | -7.82% | -3.46% | 5.94% | -6.60% | -9.73% | 82.51% | 92% | 73% | 1.42 | 1.37 | 1.48 |  | no | yes |  |
